# Data published in patent US20110040086A1, “Novel Beta-Lactam Antibiotics, Methods for Their Production, and Their Use” (DRITTE PATENTPORTFOLIO BETEILIGUNGSGESELLSCHAFT MB, priority 2007, published 2011).
# Tests used:
# [1] = system: Enterococcus faecalis 769; experiment: agar diffusion test (Test System II, multi-resistant germs); assay type: cell-based; design: key: r = resistant (no detectable zone of inhibition)
# Experimental: (§1) The test substances are deposited in stepped quantities (10 μg, 50 μg, 100 μg) onto active ingredient carriers (sensi-discs). For this purpose, the test substances are dissolved in methanol or A. dest. according to their solubility. Each inoculated plate is fitted with 3 test sheets.
# (§2) Test System II (Effect Against Multi-Resistant Germs)
# (§3) For this purpose, bacteria is cultivated on Müller-Hinton-Agar II plates.
# (§4) With 1-1.5 ml physiological saline solution, a bacteria suspension of McFarland 0.5 (corresponds to a bacteria density of 150×10^6 germs) is produced. Then, with a sterile glass rod, a small drop of bacteria suspension is placed on the Müller-Hinton-Agar plate and coated in three layers (vertical, horizontal, and transverse). Thereafter, the sensi-discs with the novel semi-synthetic test substances are placed on top. The fitted plates are incubated for 18-20 hours at 37° C. After incubation, the diameters of the zones of inhibition are read as a measure for the antimicrobial activity of the novel semi-synthetic test substances.
# [2] = system: Staphylococcus aureus 315; experiment: as above; assay type: cell-based; design: key: r = resistant (no detectable zone of inhibition)
# Experimental: as §1, §2, §3, §4
# S. aureus 36881 = experiment: as above; assay type: cell-based, Staphylococcus aureus; design: key: r = resistant (no detectable zone of inhibition)
# Experimental: as §1, §2, §3, §4
# S. aureus 520 = experiment: as above; assay type: cell-based, Staphylococcus aureus; design: key: r = resistant (no detectable zone of inhibition)
# Experimental: as §1, §2, §3, §4
# [3] = system: S. aureus North Germany strain; experiment: as above; assay type: cell-based, Staphylococcus aureus; design: key: r = resistant (no detectable zone of inhibition)
# Experimental: as §1, §2, §3, §4
# S. aureus 38418 = experiment: as above; assay type: cell-based, Staphylococcus aureus
# Experimental: as §1, §2, §3, §4
# S. aureus ATCC 6538 = experiment: as above; assay type: cell-based, Staphylococcus aureus
# Experimental: as §1, §2, §3, §4
# S. epidermidis 847 = experiment: as above; assay type: cell-based, Staphylococcus epidermidis; design: key: r = resistant (no detectable zone of inhibition)
# Experimental: as §1, §2, §3, §4
# S. epidermidis 125 = experiment: as above; assay type: cell-based, Staphylococcus epidermidis
# Experimental: as §1, §2, §3, §4
# [4] = system: Staphylococcus aureus ATCC 6538; experiment: mouse infected with Staphylococcus aureus infection model (survival); assay type: in vivo, BALB/c mice; settings: 2 × 1.0 mg (50 mg/kg) i.p.
# Experimental: Method for Effectiveness In Vivo with the Mouse Infected with Staphylococcus aureus Model
# On Day 0, at least 3 BALB/c mice per test substance (Table 8) or controls are pretreated with cyclophosphamide (250 mg/kg) in 250 μl PBS inta peritoneal (i.p.).
# On Day 2, the animals again received 100 mg/kg i.p.
# On Day 2, a colony of the test germ is transferred from a growing agar plate (Müller-Hinton-Agar, Beckton Dickinson) into a flask with 10 ml CASO broth (CASO-B., Soyabean peptone-Casein peptone broth, SIFIN, 30 g/l) and is cultivated overnight at 37° C. and a shaking frequency of 250 rpm.
# On Day 3, the pre-culture (Vk) is diluted 1:50 with CASO-B and further cultivated ca. 2 hours until an extinction in the medium of 0.6 at a wavelength of 550 nm is reached. Then, it is grown 1× with PBS at room temperature and set again to an extinction of 0.6.
# At least 3 animals for a test substance or controls are infected with 10 μl/g body weight grown germs of a bacteria suspension with the extinction 0.6 (ca. 10^10-10^12 CFU, Colony forming units) i.p.
# After 30 minutes, antibiotic solution is injected into the mice in a volume of 200 μl PBS with 3% DMSO i.p. 6 hours later, the second antibiotic injection is performed at the same concentration. […]
substance,measurement,setting,value
"3-chlorine-7-[2-(2-methoxycarbonyl-3,6-dioxocyclohexa-1,4-dienylamino)-2-phenyl-acetylamino]-8-oxo-5-aza-bicyclo[4.2.0]oct-3-ene-4-carboxylic acid [1o]",Diameter of zone of inhibition,[1]; Quantity n 0.019,r
same,Diameter of zone of inhibition,[1]; Quantity n 0.094,r
same,Diameter of zone of inhibition,[1]; Quantity n 0.19,r
same,Diameter of zone of inhibition,[2]; Quantity n 0.019,r
same,Diameter of zone of inhibition,[2]; Quantity n 0.094,r
same,Diameter of zone of inhibition,[2]; Quantity n 0.19,10 mm
same,Diameter of zone of inhibition,S. aureus 36881; Quantity n 0.019,r
same,Diameter of zone of inhibition,S. aureus 36881; Quantity n 0.094,r
same,Diameter of zone of inhibition,S. aureus 36881; Quantity n 0.19,12 mm
same,Diameter of zone of inhibition,S. aureus 520; Quantity n [mol] 0.019,r
same,Diameter of zone of inhibition,S. aureus 520; Quantity n [mol] 0.094,r
same,Diameter of zone of inhibition,S. aureus 520; Quantity n [mol] 0.19,r
same,Diameter of zone of inhibition,[3]; Quantity n 0.019,r
same,Diameter of zone of inhibition,[3]; Quantity n 0.094,r
same,Diameter of zone of inhibition,[3]; Quantity n 0.19,12 mm
same,Diameter of zone of inhibition,S. aureus 38418; Quantity n [mol] 0.019,14 mm
same,Diameter of zone of inhibition,S. aureus 38418; Quantity n [mol] 0.094,14 mm
same,Diameter of zone of inhibition,S. aureus 38418; Quantity n [mol] 0.19,28 mm
same,Diameter of zone of inhibition,S. aureus ATCC 6538; Quantity n 0.019,22 mm
same,Diameter of zone of inhibition,S. aureus ATCC 6538; Quantity n 0.094,28 mm
same,Diameter of zone of inhibition,S. aureus ATCC 6538; Quantity n 0.19,30 mm
same,Diameter of zone of inhibition,S. epidermidis 847; Quantity n [mol] 0.019,r
same,Diameter of zone of inhibition,S. epidermidis 847; Quantity n [mol] 0.094,14 mm
same,Diameter of zone of inhibition,S. epidermidis 847; Quantity n [mol] 0.19,18 mm
same,Diameter of zone of inhibition,S. epidermidis 125; Quantity n 0.019,14 mm
same,Diameter of zone of inhibition,S. epidermidis 125; Quantity n 0.094,20 mm
same,Diameter of zone of inhibition,S. epidermidis 125; Quantity n 0.19,24 mm
same,Survival/tested mice n/n,[4],2/3
